Laboratory results: patent US11000033B2, “Ketone or oxime compound, and herbicide” (NISSAN CHEMICAL CORPORATION, priority 2014, dated 2021)

Columns and labels:
Type in all cases: in vivo
Setaria viridis [1] = experiment: Test Example 4: herbicidal effect by soil treatment (symbol G)
In short: (§1)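 Seeds were sown in sterilized diluvial soil, covered with about 1.5 cm of soil, and the soil surface was sprayed with a water-diluted emulsion of the compound at a predetermined rate. Plants grew in a greenhouse at 25° C. to 30° C.; effects were scored visually 3 weeks after application.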

wheat = experiment: Test Example 4: effect on crop by soil treatment (symbol e); details: for e: wheat, effect on crop grade: application herbicide amount 320 g/ha
In short: (§2)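 Diluvial soil (sterilized) in boxes; seeds placed spot-wise alongside weed species; ~1.5 cm covering soil. Greenhouse, 25–30° C.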

Scirpus juncoides = experiment: Test Example 1: herbicidal activity, application before weed generation in submerged conditions (symbol B); details: application herbicide amount 320 g/ha
In short: (§3)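 Mixed weed seeds sown in alluvial soil under 4 cm of water, with rice seedlings at the 2.5-leaf stage added. Same-day treatment: emulsion diluted to a set herbicide amount onto the water. Three weeks at 25–30 °C, then graded on a six-step scale.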

Amaranthus retroflexus [2] = experiment: Test Example 5: herbicidal effect by foliage application, plastic box (symbol N); details: 320 g/ha, 3 weeks after application
In short: (§4)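 Leaf-applied emulsion, water-diluted to a preset herbicide dose, on two-week-old seedlings raised in a 25° C. to 30° C. greenhouse; injury rated at 3 weeks using earlier criteria.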

Setaria viridis [3] = experiment: Test Example 5: herbicidal effect by foliage application, plastic box (symbol G); details: 320 g/ha, 3 weeks after application
In short: as §4

soybean [4] = experiment: Test Example 4: effect on crop by soil treatment (symbol d); details: for d: soybean, effect on crop grade: application herbicide amount 320 g/ha
In short: as §2

Galium spurium = experiment: Test Example 5: herbicidal effect by foliage application, plastic box (symbol Q); details: 320 g/ha, 3 weeks after application
In short: as §4

beet = experiment: Test Example 4: effect on crop by soil treatment (symbol f); details: for f: beet, effect on crop grade: application herbicide amount 320 g/ha
In short: as §2

Apera spica-venti = experiment: Test Example 4: herbicidal effect by soil treatment (symbol L)
In short: as §1

Lolium multiflorum Lam. = experiment: Test Example 4: herbicidal effect by soil treatment (symbol K)
In short: as §1

Abutilon theophrasti = experiment: Test Example 5: herbicidal effect by foliage application, plastic box (symbol M); details: 320 g/ha, 3 weeks after application
In short: as §4

Chenopodium album [5] = experiment: Test Example 5: herbicidal effect by foliage application, plastic box (symbol O); details: 320 g/ha, 3 weeks after application
In short: as §4

[6] = test system: Echinochloa crus-galli var. crus-galli; experiment: Test Example 5: herbicidal effect by foliage application, plastic box (symbol H); details: 320 g/ha, 3 weeks after application
In short: as §4

Avena fatua = experiment: Test Example 4: herbicidal effect by soil treatment (symbol I)
In short: as §1

Chenopodium album [7] = experiment: Test Example 4: herbicidal effect by soil treatment (symbol O)
In short: as §1

soybean [8] = experiment: Test Example 5: effect on crop by foliage application, plastic box (symbol d); details: 320 g/ha, 3 weeks after application
In short: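 Box culture: sterile diluvial soil, seeds spot-sown, ~1.5 cm cover, raised under glass at 25–30° C.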

[9] = test system: Echinochloa crus-galli var. crus-galli; experiment: Test Example 3: herbicidal effect by foliage application, Wagner pot (symbol H); details: application herbicide amount 320 g/ha
In short: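 Post-emergence, paddy-type test: seedlings 14 d old in shallow-flooded (0.1–0.5 cm) alluvial soil, 25–30 °C greenhouse. Emulsion diluted to target rate, sprayed on leaves. Read-out: visual effect on each species at 3 weeks, per set criteria.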

Monochoria vaginalis = experiment: Test Example 1: herbicidal activity, application before weed generation in submerged conditions (symbol C); details: application herbicide amount 320 g/ha
In short: as §3

Amaranthus retroflexus [10] = experiment: Test Example 4: herbicidal effect by soil treatment (symbol N)
In short: as §1

[11] = application herbicide amount 320 g/ha

Compound	G: Setaria viridis, herbicidal effect grade (Setaria viridis [1]; [11])	e: wheat, effect on crop grade (wheat)	Herbicidal effect grade, B: Scirpus juncoides (Scirpus juncoides)	N: Amaranthus retroflexus, herbicidal effect grade (Amaranthus retroflexus [2])	G: Setaria viridis, herbicidal effect grade (Setaria viridis [3])	d: soybean, effect on crop grade (soybean [4])	Q: Galium spurium, herbicidal effect grade (Galium spurium)	f: beet, effect on crop grade (beet)	L: Apera spica-venti, herbicidal effect grade (Apera spica-venti; [11])	K: Lolium multiflorum Lam., herbicidal effect grade (Lolium multiflorum Lam.; [11])	M: Abutilon theophrasti, herbicidal effect grade (Abutilon theophrasti)	O: Chenopodium album, herbicidal effect grade (Chenopodium album [5])	H: Echinochloa crus-galli var. crus-galli, herbicidal effect grade [6]	I: Avena fatua, herbicidal effect grade (Avena fatua; [11])	O: Chenopodium album, herbicidal effect grade (Chenopodium album [7]; [11])	d: soybean, effect on crop grade (soybean [8])	herbicidal effect on H (Echinochloa crus-galli var. crus-galli), grade 0-5 [9]	Herbicidal effect grade, C: Monochoria vaginalis (Monochoria vaginalis)	N: Amaranthus retroflexus, herbicidal effect grade (Amaranthus retroflexus [10]; [11])	also measured
CON=C(C)CC1CC(O)=C(c2c(C)cc(-c3cccc(Cl)c3)cc2C)C1=O (mixture of isomers) [6-034]	5 (Herbicidal ratio of 90% or more (almost completely withered))	0 (Herbicidal ratio of 5% or lower (almost no effect))	5 (Herbicidal ratio of 90% or more (almost completely withered))	3 (Herbicidal ratio of 40% or higher and lower than 70%)	5 (Herbicidal ratio of 90% or more (almost completely withered))	0 (Herbicidal ratio of 5% or lower (almost no effect))	5 (Herbicidal ratio of 90% or more (almost completely withered))	0 (Herbicidal ratio of 5% or lower (almost no effect))	5 (Herbicidal ratio of 90% or more (almost completely withered))	5 (Herbicidal ratio of 90% or more (almost completely withered))	3 (Herbicidal ratio of 40% or higher and lower than 70%)	3 (Herbicidal ratio of 40% or higher and lower than 70%)	5 (Herbicidal ratio of 90% or more (almost completely withered))	1 (Herbicidal ratio of 5% or higher and lower than 20%)	0 (Herbicidal ratio of 5% or lower (almost no effect))	0 (Herbicidal ratio of 5% or lower (almost no effect))	5 (Herbicidal ratio of 90% or more (almost completely withered))	4 (Herbicidal ratio of 70% or higher and lower than 90%)	2 (Herbicidal ratio of 20% or higher and lower than 40%)	
CON=C(C)CC1CC(OC(=O)C(C)(C)c2ccc(Cl)cc2)=C(c2c(C)cc(C)cc2C)C1=O (stereo not shown) [1-148]			4 (Herbicidal ratio of 70% or higher and lower than 90%)														5 (Herbicidal ratio of 90% or more (almost completely withered))	3 (Herbicidal ratio of 40% or higher and lower than 70%)		G: Setaria viridis, herbicidal effect grade (Setaria viridis [1]; 320 g/ha): 5 (Herbicidal ratio of 90% or more (almost completely withered)); e: wheat, effect grade on crop (wheat; 320 g/ha): 0 (Herbicidal ratio of 5% or lower (almost no effect)); N: Amaranthus retroflexus, herbicidal effect (criteria 0-5) (Amaranthus retroflexus [2]): 2 (Herbicidal ratio of 20% or higher and lower than 40%); G: Setaria viridis, herbicidal effect (criteria 0-5) (Setaria viridis [3]): 5 (Herbicidal ratio of 90% or more (almost completely withered)); d: soybean, effect grade on crop (soybean [4]; 320 g/ha): 0 (Herbicidal ratio of 5% or lower (almost no effect)); Q: Galium spurium, herbicidal effect (criteria 0-5) (Galium spurium): 3 (Herbicidal ratio of 40% or higher and lower than 70%); f: beet, effect grade on crop (beet; 320 g/ha): 0 (Herbicidal ratio of 5% or lower (almost no effect)); L: Apera spica-venti, herbicidal effect grade (Apera spica-venti; 320 g/ha): 5 (Herbicidal ratio of 90% or more (almost completely withered)); K: Lolium multiflorum Lam., herbicidal effect grade (Lolium multiflorum Lam.; 320 g/ha): 5 (Herbicidal ratio of 90% or more (almost completely withered)); M: Abutilon theophrasti, herbicidal effect (criteria 0-5) (Abutilon theophrasti): 4 (Herbicidal ratio of 70% or higher and lower than 90%); O: Chenopodium album, herbicidal effect (criteria 0-5) (Chenopodium album [5]): 1 (Herbicidal ratio of 5% or higher and lower than 20%); H: Echinochloa crus-galli var. crus-galli, herbicidal effect (criteria 0-5) [6]: 5 (Herbicidal ratio of 90% or more (almost completely withered)); I: Avena fatua, herbicidal effect grade (Avena fatua; 320 g/ha): 0 (Herbicidal ratio of 5% or lower (almost no effect)); O: Chenopodium album, herbicidal effect grade (Chenopodium album [7]; 320 g/ha): 0 (Herbicidal ratio of 5% or lower (almost no effect)); d: soybean, effect on crop (criteria 0-5) (soybean [8]): 3 (Herbicidal ratio of 40% or higher and lower than 70%); N: Amaranthus retroflexus, herbicidal effect grade (Amaranthus retroflexus [10]; 320 g/ha): 2 (Herbicidal ratio of 20% or higher and lower than 40%)
CON=C(C)CC1CC(O)=C(c2c(C)cc(-c3ccc(Cl)cc3)cc2C)C1=O (mixture of isomers) [6-029]	5 (Herbicidal ratio of 90% or more (almost completely withered))	4 (Herbicidal ratio of 70% or higher and lower than 90%)	3 (Herbicidal ratio of 40% or higher and lower than 70%)	5 (Herbicidal ratio of 90% or more (almost completely withered))	5 (Herbicidal ratio of 90% or more (almost completely withered))	0 (Herbicidal ratio of 5% or lower (almost no effect))	5 (Herbicidal ratio of 90% or more (almost completely withered))	0 (Herbicidal ratio of 5% or lower (almost no effect))	5 (Herbicidal ratio of 90% or more (almost completely withered))	5 (Herbicidal ratio of 90% or more (almost completely withered))	4 (Herbicidal ratio of 70% or higher and lower than 90%)	4 (Herbicidal ratio of 70% or higher and lower than 90%)	5 (Herbicidal ratio of 90% or more (almost completely withered))	4 (Herbicidal ratio of 70% or higher and lower than 90%)	3 (Herbicidal ratio of 40% or higher and lower than 70%)	0 (Herbicidal ratio of 5% or lower (almost no effect))	5 (Herbicidal ratio of 90% or more (almost completely withered))	3 (Herbicidal ratio of 40% or higher and lower than 70%)	0 (Herbicidal ratio of 5% or lower (almost no effect))	
Cc1cc(C)c(C2=C(O)CC(CC(=O)C3CCCCC3)C2=O)c(C)c1 (stereo not shown) [2-030]	5 (Herbicidal ratio of 90% or more (almost completely withered))	0 (Herbicidal ratio of 5% or lower (almost no effect))	0 (Herbicidal ratio of 5% or lower (almost no effect))	0 (Herbicidal ratio of 5% or lower (almost no effect))	5 (Herbicidal ratio of 90% or more (almost completely withered))	0 (Herbicidal ratio of 5% or lower (almost no effect))	0 (Herbicidal ratio of 5% or lower (almost no effect))	0 (Herbicidal ratio of 5% or lower (almost no effect))	4 (Herbicidal ratio of 70% or higher and lower than 90%)	4 (Herbicidal ratio of 70% or higher and lower than 90%)	0 (Herbicidal ratio of 5% or lower (almost no effect))	0 (Herbicidal ratio of 5% or lower (almost no effect))	4 (Herbicidal ratio of 70% or higher and lower than 90%)	0 (Herbicidal ratio of 5% or lower (almost no effect))	0 (Herbicidal ratio of 5% or lower (almost no effect))	0 (Herbicidal ratio of 5% or lower (almost no effect))	4 (Herbicidal ratio of 70% or higher and lower than 90%)	0 (Herbicidal ratio of 5% or lower (almost no effect))	0 (Herbicidal ratio of 5% or lower (almost no effect))	
